Our source for the Ki and melting point values is patent publication US7625913B2, “Pyrazole compounds useful as protein kinase inhibitors” (Vertex Pharmaceuticals Incorporated, priority 2000, dated 2009).

Series [1] addresses T1, GSK-3β (AA 1-420) (Homo sapiens, UniProt P49841).
T1 construct: GSK-3β (AA 1-420)
Description: Ki determination for the inhibition of GSK-3 (coupled enzyme system). The series is classed as biochemical. The conditions noted are these: 20 μM ATP, 300 μM peptide, 20 nM GSK-3β, 30° C. The protocol: Reactions were carried out in a solution containing 100 mM HEPES (pH 7.5), 10 mM MgCl2, 25 mM NaCl, 300 μM NADH, 1 mM DTT and 1.5% DMSO. Final substrate concentrations in the assay were 20 μM ATP (Sigma Chemicals, St Louis, Mo.) and 300 μM peptide (HSSPHQS(PO3H2)EDEEE, American Peptide, Sunnyvale, Calif.). Reactions were carried out at 30° C. and 20 nM GSK-3β. Final concentrations of the components of the coupled enzyme system were 2.5 mM phosphoenolpyruvate, 300 μM NADH, 30 μg/ml pyruvate kinase and 10 μg/ml lactate dehydrogenase.
An assay stock buffer solution was prepared containing all of the reagents listed above with the exception of ATP and the test compound of interest. […] The reaction was initiated by the addition of 20 μl of ATP (final concentration 20 μM). Rates of reaction were obtained using a Molecular Devices Spectramax plate reader (Sunnyvale, Calif.) over 10 min at 30° C. The Ki values were determined from the rate data as a function of inhibitor concentration.

For series [2], the target named is T2, Aurora-2 (Homo sapiens, UniProt O14965).
T2 sequence (O14965 1-403): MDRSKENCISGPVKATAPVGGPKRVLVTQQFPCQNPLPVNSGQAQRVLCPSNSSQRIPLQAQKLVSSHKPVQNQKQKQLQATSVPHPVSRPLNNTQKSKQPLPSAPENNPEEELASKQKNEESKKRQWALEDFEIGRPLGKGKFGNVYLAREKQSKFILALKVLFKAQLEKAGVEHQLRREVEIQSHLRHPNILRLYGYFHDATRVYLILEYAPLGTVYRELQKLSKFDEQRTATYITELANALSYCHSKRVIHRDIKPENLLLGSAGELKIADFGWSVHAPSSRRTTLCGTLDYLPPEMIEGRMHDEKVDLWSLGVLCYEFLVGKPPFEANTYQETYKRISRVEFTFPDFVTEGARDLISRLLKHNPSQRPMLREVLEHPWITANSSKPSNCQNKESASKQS
Description: Ki determination for the inhibition of Aurora-2 (coupled enzyme assay). The series is classed as biochemical. Conditions: 70 nM Aurora-2, peptide LRRASLG, 30° C. The protocol: To an assay stock buffer solution containing 0.1M HEPES 7.5, 10 mM MgCl2, 1 mM DTT, 25 mM NaCl, 2.5 mM phosphoenolpyruvate, […], 30 mg/ml pyruvate kinase, 10 mg/ml lactate dehydrogenase, 40 mM ATP, and 800 μM peptide (LRRASLG, American Peptide, Sunnyvale, Calif.) was added a DMSO solution of a compound of the present invention to a final concentration of 30 μM. The resulting mixture was incubated at 30° C. for 10 min. The reaction was initiated by the addition of 10 μL of Aurora-2 stock solution to give a final concentration of 70 nM in the assay. […] The Ki values were determined from the rate data as a function of inhibitor concentration.

Series [3] concerns the target CDK-2/Cyclin A (Homo sapiens, UniProt P24941). Description: CDK-2 inhibition assay (coupled enzyme assay). The series is classed as biochemical. Conditions: 25 nM CDK-2/Cyclin A, 30° C. As to the method:
Compounds were screened in the following manner for their ability to inhibit CDK-2 using a standard coupled enzyme assay (Fox et al (1998) Protein Sci 7, 2249).
To an assay stock buffer solution containing 0.1M HEPES 7.5, 10 mM MgCl2, 1 mM DTT, 25 mM NaCl, 2.5 mM phosphoenolpyruvate, […], 30 mg/ml pyruvate kinase, 10 mg/ml lactate dehydrogenase, 100 mM ATP, and 100 μM peptide ([…], American Peptide, Sunnyvale, Calif.) was added a DMSO solution of a compound of the present invention to a final concentration of 30 μM. The resulting mixture was incubated at 30° C. for 10 min.
The reaction was initiated by the addition of 10 μL of CDK-2/Cyclin A stock solution to give a final concentration of 25 nM in the assay. The rates of reaction were obtained by monitoring absorbance at 340 nm over a 5-minute read time at 30° C. using a BioRad Ultramark plate reader (Hercules, Calif.). The Ki values were determined from the rate data as a function of inhibitor concentration.

pKi: −log10 of the molar value.

T1 sequence (P49841 whole entry, the tested form may be a part): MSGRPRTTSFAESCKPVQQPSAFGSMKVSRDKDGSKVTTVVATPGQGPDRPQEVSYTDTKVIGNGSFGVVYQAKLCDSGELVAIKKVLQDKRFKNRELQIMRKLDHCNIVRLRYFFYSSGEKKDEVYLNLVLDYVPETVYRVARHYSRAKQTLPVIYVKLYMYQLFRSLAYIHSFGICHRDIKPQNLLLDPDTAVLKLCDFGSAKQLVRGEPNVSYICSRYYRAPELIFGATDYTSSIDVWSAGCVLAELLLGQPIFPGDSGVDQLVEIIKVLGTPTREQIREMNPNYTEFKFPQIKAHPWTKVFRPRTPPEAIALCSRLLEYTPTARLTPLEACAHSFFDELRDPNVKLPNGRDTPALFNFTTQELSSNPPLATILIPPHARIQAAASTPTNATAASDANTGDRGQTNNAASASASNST

Usually pKi stands for −log10 of the Ki, conventionally taken in molar units. Low values mean a high Ki, high ones a low Ki. The melting point is the temperature, or range, at which the solid turns liquid. `COc1ccc2c(Nc3cc(C)n[nH]3)nc(Sc3ccc(NC(C)=O)cc3)nc2c1` [IIa-40, [2-(4-Acetamidophenylsulfanyl)-7-methoxy-quinazolin-4-yl]-(5-methyl-2H-pyrazol-3-yl)-amine] yielded a melting point of 291 to 293 °C. For the same compound, the pKi in series [1] is 5.15 to 6.00. Besides, the pKi in series [2] is over 7.00. The compound further had a pKi in series [3] of 4.70 to 6.00.
